Source: patent US20140350050A1, “PYRIDINE COMPOUNDS AS INHIBITORS OF KINASE” (TELIGENE LTD., priority 2011, published 2014)
Read-outs that look alike come from different tables or passages of the source.

Assays:
ALK kinase = ALK kinase (Homo sapiens, UniProt Q9UM73); test: ALK kinase assay; assay type: biochemical
Procedure: An in vitro assay which determines the ability of a test compound to inhibit ALK kinase. a) kinase-tagged T7 phage strains were prepared in an E. coli host derived from the BL21 strain. E. coli were grown to log-phase and infected with T7 phage and incubated with shaking at 32° C. until lysis. The lysates were centrifuged and filtered to remove cell debris. The remaining kinases were produced in HEK-293 cells and subsequently tagged with DNA for qPCR detection. […] The liganded beads were blocked with excess biotin and washed with blocking buffer (SeaBlock (Pierce), 1% BSA, 0.05% Tween 20, 1 mM DTT) to remove unbound ligand and to reduce non-specific binding. […] All reactions were performed in polystyrene 96-well plates in a final volume of 0.135 ml. […] The kinase concentration in the eluates was measured by qPCR. […]
b) An alternative method to conduct the kinase assay with the following condition and procedure: Reagent: Base Reaction buffer; 20 mM Hepes (pH 7.5), 10 mM MgCl2, 1 mM EGTA, 0.02% Brij35, 0.02 mg/ml BSA, 0.1 mM Na3VO4, 2 mM DTT, 1% DMSO.
1. Preparing indicated substrate in freshly prepared Base Reaction Buffer
2. Delivering any required cofactors to the substrate solution above
3. Delivering indicated kinase into the substrate solution and gently mix
4. Delivering compounds in DMSO into the kinase reaction mixture
5. Delivering ^33P-ATP (specific activity 0.01 μCi/μl final) into the reaction mixture to initiate the reaction.
6. Incubating kinase reaction for 120 min. at room temperature
7. Reactions are spotted onto P81 ion exchange paper (Whatman #3698-915)
8. Washing filters extensively in 0.75% Phosphoric acid. […]
c) An alternative method to conduct the kinase assay with the following condition and procedure: The assay was performed using Kinase-Glo Plus luminescence kinase assay kit (Promega). It measures kinase activity by quantitating the amount of ATP remaining in solution following a kinase reaction. The luminescent signal from the assay is correlated with the amount of ATP present and is inversely correlated with the amount of kinase activity.
The compound were diluted in 10% DMSO and 5 μl of the dilution was added to a 50 μl reaction so that the final concentration of DMSO is 1% in all of reactions. All of the enzymatic reactions were conducted at 30° C. for 40 minutes. The 50 μl reaction mixture contains 40 mM Tris, pH 7.4, 10 mM MgCl2, 0.1 mg/ml BSA, 1 mM DTT, 0.2 mg/ml substrate peptide, 10 μM ATP and ALK (Table 2.3.1). After the enzymatic reaction, 50 μl of Kinase-Glo Plus Luminescence kinase assay solution (Promega) was added to each reaction and incubate the plate for 5 minutes at room temperature. Luminescence signal was measured using a BioTek Synergy 2 microplate reader. ALK activity assays were performed in duplicate at each concentration. The luminescence data were analyzed using the computer software, Graphpad Prism. The difference between luminescence intensities in the absence of ALK (Lut) and in the presence of ALK (Luc) was defined as 100% activity (Lut−Luc). Using luminescence signal (Lu) in the presence of the compound, % activity was calculated as % activity={(Lut−Lu)/(Lut−Luc)}×100%, where Lu=the luminescence intensity in the presence of the compound (all percent activities below zero were shown zero in the table). The values of % activity versus a series of compound concentrations were then plotted using non-linear regression analysis of Sigmoidal dose-response curve generated with the equation Y=B+(T−B)/1+10^((Log EC50−X)×Hill Slope), where Y=percent activity, B=minimum percent activity, T=maximum percent activity, X=logarithm of compound and Hill Slope=slope factor or Hill coefficient. The IC50 value was determined by the concentration causing a half-maximal percent activity.

[1] = target: T1, BAF3-EML4-ALK stable cell line (Homo sapiens, UniProt Q9UM73); test: BAF3-EML4-ALK cell assay (MTT cell proliferation); assay type: cell-based; conditions: 72 hours, read-out: BAF3-EML4-ALK Cell (IC50 grading)
T1 construct: fused on or other part: Q9HC35 (Echinoderm microtubule-associated protein-like 4)
Procedure: BAF3-EML4-ALK Cell Assay:
A method of establishing BAF3-EML4-ALK stable cell line: Transfer 5×10^6 BAF3 cells to a new tube, pellet the cells, and remove PBS by aspiration.; Resuspend the cells in 1 ml electroporation buffer, this provides 5×10^6 of cells; Transfer 200 μl of cell suspension to EP tube, add 5 ug DNA, flip and place it on ice for 10 min; Pipet the 200 μl cell suspension into 2 mm electroporation cuvette; Place the cuvette into shockpod, close the lid, and press the PULSE button; Set parameters: Expentional decay pulse: VOL=200 V; CAP=900 uF, RES=1000Ω; Transfer all cells from electroporation cuvette to 6 well plate, adding 2 ml DMEMF12 containing 5 ng/ml IL3, 24 h later, replace the medium with DMEM F12 containing 2 μg/ml blasticidin S and 5 ng/ml IL3, maintain for 3 days; change the medium with DMEM F12 containing 2 ug/ml blasticidin S and 2.5 ng/ml IL3, maintain 3 days; change the medium with DMEM F12 containing 2 ug/Ml blasticidin S, maintain to culture.
MTT Cell proliferation assay: 5×10^3 per well cell with 100 μl medium was seeded in 96-well plate; 24 hours later, 100 μl fresh medium with various concentration of compounds; After the cells were treated by compounds for 72 hours, add 20 μl MTT (5 mg/ml) into each wells; The plate is incubated at 37° C. for 4 hours; Centrifuge the plate at 800 g for 10 mins, Aspirated the medium, add 150 μl DMSO into each well. Shake plates gently for 10 mins, Measure the absorbance at 570 nm on plate reader; IR=(WC−WT)/WC.

[2] = system: EML4-ALK-BAF3 cell line xenograft; assay type: in vivo; conditions: 40 mg/kg oral gavage once daily
Text: A representative protocol for the in vivo experiment is as followed to establish the subcutaneous EML4-ALK-BAF3 cell line xenograft model in nude mice and to evaluate the in vivo therapeutic efficacy of the compounds: Animals: Male Balb/c nude mice (6˜8 weeks old) were obtained from SLAC Laboratory Animal, Shanghai, China. Animals were maintained under SPF conditions in sterile filter top cages and housed on HEPA-filtered ventilated racks. Animals received sterile rodent chow and water ad libitum. Cell line: BAF3-EML4-ALK stable cell line, the BAF3 cell which could expressed fusion oncogene EML4-ALK. S.c. Xenograft Models in Athymic Mice: Cells for implantation into athymic mice were harvested and pelleted by centrifugation at 1200 r/min for 5 min. Cells were washed once and resuspended in sterile PBS buffer with 5×10^6 in 200 μl. Then cells were implanted s.c. into the right scapular region of each mouse and allowed to grow to 200˜300 mm^3 before the administration of compound. Preparation of the Dose Formulation: each compound was suspensioned in 0.5% CMC-Na. Randomization: When tumor volumes approach 200˜300 mm^3, the mice will be randomized into 5 groups according to the tumor volume. The day will be denoted as D1 and the treatments will be started at this day. Administered: Dose will be administered with oral gavage needle once daily for number of days. Treatment of compounds administered in 0.5% CMC-Na by p.o. gavage was initiated when tumors were 200˜300 mm^3 in volume. Observations: After inoculation, the animals will be checked daily for morbidity and mortality. At the time of routine monitoring, the animals will be checked for any effects of tumor growth and treatments on normal behavior such as mobility, body weight gain/loss (body weights will be measured twice weekly or every other day), eye/hair matting and any other abnormal effect. Death and observed clinical signs will be recorded on the basis of the numbers of animals within each subset. Tumor Size Measurements: Tumor volume was determined by measurement with electronic vernier calipers every 3 days and tumor volume was calculated as the product of its length×width^2×0.5. Effect studies: Tumor volume was expressed on indicated days as the mean tumor volume ±SD. […] Significant differences between the treated versus the control groups (p<0.05) were determined using t test. At study endpoint, after blood collection, mice were practiced euthanasia by cervical dislocation, the tumor tissue was collected first, then abdominal cavity was cut open, liver and spleen were excised, then weight after the gallblader was removed respectively. Organ weight and Organ/body weight ratios between the treated versus the control groups were compared. Ratios was calculated as follows: Ratios=Organ weight/(body weight-tumor weight). Both organ weight and Organ/body weight ratios were also expressed as mean±SD, and significant differences between the treated versus the control groups (p<0.05) were determined using t test.

[3] = ALK kinase assay, read-out: ALK (IC50 grading)

Chain of ALK kinase (Q9UM73 19-1620): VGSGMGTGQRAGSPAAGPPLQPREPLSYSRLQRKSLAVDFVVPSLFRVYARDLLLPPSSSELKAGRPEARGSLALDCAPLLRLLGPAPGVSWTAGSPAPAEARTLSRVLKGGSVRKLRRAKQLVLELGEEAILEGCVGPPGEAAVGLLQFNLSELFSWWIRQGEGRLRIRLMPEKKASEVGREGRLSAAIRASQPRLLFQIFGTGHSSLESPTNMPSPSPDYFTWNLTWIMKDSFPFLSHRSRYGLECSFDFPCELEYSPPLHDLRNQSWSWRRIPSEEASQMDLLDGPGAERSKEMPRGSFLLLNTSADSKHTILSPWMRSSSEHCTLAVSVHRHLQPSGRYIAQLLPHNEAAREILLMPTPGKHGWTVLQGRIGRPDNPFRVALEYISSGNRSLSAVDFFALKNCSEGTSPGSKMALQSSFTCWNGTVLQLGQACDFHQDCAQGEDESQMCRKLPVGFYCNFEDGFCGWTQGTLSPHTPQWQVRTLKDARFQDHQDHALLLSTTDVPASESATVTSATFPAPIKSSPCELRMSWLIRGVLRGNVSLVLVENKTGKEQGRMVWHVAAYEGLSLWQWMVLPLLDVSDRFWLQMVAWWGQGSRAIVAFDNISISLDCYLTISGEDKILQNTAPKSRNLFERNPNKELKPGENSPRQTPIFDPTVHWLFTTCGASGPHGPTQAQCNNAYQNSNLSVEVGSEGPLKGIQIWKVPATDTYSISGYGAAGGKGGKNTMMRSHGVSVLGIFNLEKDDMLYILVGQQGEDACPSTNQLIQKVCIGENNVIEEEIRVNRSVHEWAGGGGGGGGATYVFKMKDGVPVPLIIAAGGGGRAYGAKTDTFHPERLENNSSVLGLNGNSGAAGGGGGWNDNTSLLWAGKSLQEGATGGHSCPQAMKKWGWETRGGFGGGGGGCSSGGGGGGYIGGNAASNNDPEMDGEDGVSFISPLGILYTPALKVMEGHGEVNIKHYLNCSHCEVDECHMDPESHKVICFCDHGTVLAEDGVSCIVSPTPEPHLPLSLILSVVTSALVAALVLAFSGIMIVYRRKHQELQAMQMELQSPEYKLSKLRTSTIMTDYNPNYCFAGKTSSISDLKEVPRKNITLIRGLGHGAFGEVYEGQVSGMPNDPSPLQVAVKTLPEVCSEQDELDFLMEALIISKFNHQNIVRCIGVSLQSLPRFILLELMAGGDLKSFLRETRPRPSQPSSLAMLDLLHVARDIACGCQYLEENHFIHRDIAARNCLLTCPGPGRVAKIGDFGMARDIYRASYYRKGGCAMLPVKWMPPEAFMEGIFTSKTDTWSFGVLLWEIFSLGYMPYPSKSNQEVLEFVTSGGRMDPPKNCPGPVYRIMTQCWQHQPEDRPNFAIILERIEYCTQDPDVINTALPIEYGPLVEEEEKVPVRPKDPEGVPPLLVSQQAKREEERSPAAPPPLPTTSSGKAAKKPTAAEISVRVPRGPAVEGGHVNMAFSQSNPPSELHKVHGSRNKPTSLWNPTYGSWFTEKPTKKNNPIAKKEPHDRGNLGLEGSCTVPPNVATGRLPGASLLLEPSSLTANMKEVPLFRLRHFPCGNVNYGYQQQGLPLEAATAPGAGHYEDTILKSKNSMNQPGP
T1 sequence (Q9UM73 whole entry, change not shown, the tested form may be a part): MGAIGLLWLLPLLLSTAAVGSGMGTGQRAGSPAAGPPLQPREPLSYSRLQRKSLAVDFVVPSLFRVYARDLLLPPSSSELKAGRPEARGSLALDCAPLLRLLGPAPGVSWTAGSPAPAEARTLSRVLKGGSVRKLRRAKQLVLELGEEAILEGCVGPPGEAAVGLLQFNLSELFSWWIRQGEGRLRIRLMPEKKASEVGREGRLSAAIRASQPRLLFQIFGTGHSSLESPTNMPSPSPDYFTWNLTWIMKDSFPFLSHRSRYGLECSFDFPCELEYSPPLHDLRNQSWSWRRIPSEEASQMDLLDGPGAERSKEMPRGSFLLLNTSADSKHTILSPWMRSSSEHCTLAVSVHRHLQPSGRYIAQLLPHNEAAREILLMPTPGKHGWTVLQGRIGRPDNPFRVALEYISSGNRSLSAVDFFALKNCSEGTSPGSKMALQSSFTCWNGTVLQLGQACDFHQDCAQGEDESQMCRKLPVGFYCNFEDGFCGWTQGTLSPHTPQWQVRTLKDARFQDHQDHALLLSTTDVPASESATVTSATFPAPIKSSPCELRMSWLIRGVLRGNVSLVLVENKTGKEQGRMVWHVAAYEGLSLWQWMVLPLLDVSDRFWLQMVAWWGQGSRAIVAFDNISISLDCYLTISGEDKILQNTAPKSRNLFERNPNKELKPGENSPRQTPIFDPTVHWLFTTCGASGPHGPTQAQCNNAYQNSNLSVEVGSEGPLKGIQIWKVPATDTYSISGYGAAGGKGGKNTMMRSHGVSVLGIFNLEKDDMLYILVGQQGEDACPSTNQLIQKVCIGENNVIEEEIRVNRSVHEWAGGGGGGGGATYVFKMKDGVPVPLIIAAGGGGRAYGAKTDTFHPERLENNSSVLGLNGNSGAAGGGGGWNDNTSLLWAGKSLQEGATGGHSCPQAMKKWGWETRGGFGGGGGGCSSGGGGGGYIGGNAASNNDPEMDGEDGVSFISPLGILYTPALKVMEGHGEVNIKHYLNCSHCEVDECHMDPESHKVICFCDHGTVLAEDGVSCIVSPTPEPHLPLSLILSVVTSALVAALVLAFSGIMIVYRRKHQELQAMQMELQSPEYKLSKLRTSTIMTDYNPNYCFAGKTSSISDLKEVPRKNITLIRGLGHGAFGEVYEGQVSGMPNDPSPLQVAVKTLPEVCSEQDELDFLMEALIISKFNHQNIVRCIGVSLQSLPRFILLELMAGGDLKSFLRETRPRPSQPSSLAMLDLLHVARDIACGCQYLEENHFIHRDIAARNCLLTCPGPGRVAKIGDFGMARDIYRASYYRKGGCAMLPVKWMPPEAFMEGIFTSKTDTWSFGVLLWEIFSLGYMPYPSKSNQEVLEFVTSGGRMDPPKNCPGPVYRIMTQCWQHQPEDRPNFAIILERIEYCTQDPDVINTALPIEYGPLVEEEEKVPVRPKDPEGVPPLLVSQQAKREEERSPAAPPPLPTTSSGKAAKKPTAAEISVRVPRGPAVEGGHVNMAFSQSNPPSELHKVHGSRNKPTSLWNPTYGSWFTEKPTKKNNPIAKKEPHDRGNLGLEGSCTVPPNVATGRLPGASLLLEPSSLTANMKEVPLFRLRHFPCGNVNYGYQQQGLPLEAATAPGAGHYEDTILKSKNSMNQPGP

| SMILES | IC50 (ALK kinase; [3]) [µM] | GI50 [1] [µM] | liver weight at the end of the study ([2]; control group 1.523) [gram] | Tumor growth inhibition (TGI, %) ([2]; Table B, day 4) [%] | Tumor growth inhibition (TGI, %) ([2]; Table B, day 7) [%] | Tumor growth inhibition (TGI, %) ([2]; Table B, day 9) [%] | IC50 (ALK kinase; read-out: IC50 in the ALK kinase assay) [µM] | Tumor growth inhibition (TGI, %) ([2]; Table C, day 2) [%] | Tumor growth inhibition (TGI, %) ([2]; Table C, day 5) [%] | Tumor growth inhibition (TGI, %) ([2]; Table C, day 8) [%] | Tumor growth inhibition (TGI, %) ([2]; Table C, day 11) [%] | Tumor growth inhibition (TGI, %) ([2]; Table C, day 14) [%] |
| --- | --- | --- | --- | --- | --- | --- | --- | --- | --- | --- | --- | --- |
| CC(=O)Nc1ncc(-c2cnn(C3CCNCC3)c2)cc1O[C@H](C)c1c(Cl)ccc(F)c1Cl [Compound 18, (R)—N-(3-(1-(2,6-dichloro-3-fluorophenyl)ethoxy)-5-(1-(piperidin-4-yl)-1H-pyrazol-4-yl)pyridin-2-yl)acetamide] | ≤ 0.1 | ≤ 0.1 | 1.318 | 24.11 | 38.91 | 39.08 |  |  |  |  |  |  |
| [2H]C([2H])([2H])N1CCC(n2cc(-c3cnc(N)c(O[C@H](C)c4c(Cl)ccc(F)c4Cl)c3)cn2)CC1 [Compound 20, (R)-3-(1-(2,6-dichloro-3-fluorophenyl)ethoxy)-5-(1-(1-d3-methylpiperidin-4-yl)-1H-pyrazol-4-yl)pyridin-2-amine] | ≤ 0.1 | ≤ 0.1 |  |  |  |  | 0.0026 | 29.80 | 58.20 | 71.73 | 90.29 | 92.09 |
